Key:
[1] = tested on: Isolated, perfused and ventilated lungs from adult rats; experiment: Isolated, perfused and ventilated rat lung, histamine-induced constriction
Method: Isolated, perfused and ventilated lungs from adult rats (280 to 330 g body weight) were injected with 50 pg of histamine per lung. After 2 to […], this caused constriction of the bronchial and pulmonary vessels with reduction of the lung extensibility.

[2] = tested on: prepared lung tissue and trachea pieces of guinea pigs; conditions: tissue not aerated, cited from earlier work
[3] = upon the action of γ-globulin on lung tissue

## COC1=C(OC)C(=O)C(C/C=C(\C)CC/C=C(\C)CC/C=C(\C)CC/C=C(\C)CC/C=C(\C)CC/C=C(\C)CC/C=C(\C)CC/C=C(\C)CC/C=C(\C)CCC=C(C)C)=C(C)C1=O [CoQ-10, 2,3-dimethoxy-5-methyl-6-decaprenyl-1,4-benzoquinone]
[1]; 2.7 ppm in the perfusate, compared with control perfusion (even below)
  spontaneous vasoconstriction of the lung vessels: decreased
[1]; previous addition of 2.7 ppm in the perfusate, 50 pg of histamine per lung, reaction after 2 to 3 hours
  delayed histamine reaction (constriction of the bronchial and pulmonary vessels with reduction of the lung extensibility): completely prevented
[2]; continuously administered
  contraction of lung tissue by added histamine: increased
[2]; [3]
  secretion of SRS-A: reduced
  secretion of histamines: reduced

From US20050084505A1, “Utilization of ubiquinones for influencing the effect of histamine” (priority 2002, published 2005)
